Measurements: patent publication US10058550B2, “Methods of treating heart failure” (priority 2015, dated 2018)

Target: human APJ receptor (Homo sapiens (Human), UniProt P35414)
Test: biochemical
Assay type: biochemical
Details: read-out: Activity hAPJ SPA EC50 IP
Method in brief: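 Membranes from CHO cells stably expressing cloned human APJ were incubated with WGA SPA beads in 20 mM HEPES pH 7.5, 5 mM MgCl2, 0.1% BSA, 200 mM NaCl and 3 μM GDP. Reaction started with 0.2 nM [35S]GTPγS ± ligands, 90 min at RT. EC50 obtained by non-linear regression as mean of independent experiments.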

Sequence of human APJ receptor (P35414 whole entry): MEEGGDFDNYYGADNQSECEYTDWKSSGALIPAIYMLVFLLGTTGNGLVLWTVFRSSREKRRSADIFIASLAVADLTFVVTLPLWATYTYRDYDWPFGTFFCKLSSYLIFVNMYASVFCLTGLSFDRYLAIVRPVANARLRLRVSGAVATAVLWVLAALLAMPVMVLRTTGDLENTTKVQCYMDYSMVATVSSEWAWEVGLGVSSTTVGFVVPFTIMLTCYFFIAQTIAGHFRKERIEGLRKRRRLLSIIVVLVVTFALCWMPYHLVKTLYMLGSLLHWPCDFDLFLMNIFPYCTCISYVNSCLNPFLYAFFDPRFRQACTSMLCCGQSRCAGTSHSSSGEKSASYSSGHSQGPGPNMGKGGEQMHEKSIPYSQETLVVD

| Compound | EC50 [nM] |
| --- | --- |
| COc1ccc(-n2c(NS(=O)(=O)[C@@H](C)[C@H](OC)c3ncc(C)cn3)nnc2-c2cccc(OC)n2)cc1 [Example 46.0, (1R,2S)-1-methoxy-N-(4-(4-methoxyphenyl)-5-(6-methoxy-2-pyridinyl)-4H-1,2,4-triazol-3-yl)-1-(5-methyl-2-pyrimidinyl)-2-propanesulfonamide] | 75 |
| COc1cccc(-c2nnc(NS(=O)(=O)[C@@H](C)[C@H](OC)c3ncc(C)cn3)n2-c2cccc(F)c2)n1 [Example 47.0, (1R,2S)-N-(4-(3-fluorophenyl)-5-(6-methoxy-2-pyridinyl)-4H-1,2,4-triazol-3-yl)-1-methoxy-1-(5-methyl-2-pyrimidinyl)-2-propanesulfonamide] | 8.8 |
| CCO[C@H](c1ncc(F)cn1)[C@H](C)S(=O)(=O)Nc1nnc(-c2cccc(OC)n2)n1-c1c(OC)cccc1OC [Example 48.0, (1R,2S)-N-(4-(2,6-dimethoxyphenyl)-5-(6-methoxy-2-pyridinyl)-4H-1,2,4-triazol-3-yl)-1-ethoxy-1-(5-fluoro-2-pyrimidinyl)-2-propanesulfonamide] | 0.18 |
| COc1cnc([C@@H](OC)[C@H](C)S(=O)(=O)Nc2nnc(-c3cccc(OC)n3)n2-c2c(OC)cccc2OC)nc1 [Example 49.0, (1R,2S)-N-(4-(2,6-dimethoxyphenyl)-5-(6-methoxy-2-pyridinyl)-4H-1,2,4-triazol-3-yl)-1-methoxy-1-(5-methoxy-2-pyrimidinyl)-2-propanesulfonamide] | 0.17 |
| CCO[C@H](c1ncc(F)cn1)[C@H](C)S(=O)(=O)Nc1nnc(-c2cccc(OC)n2)n1-c1ccccc1 [Example 50.0, (1R,2S)-1-ethoxy-1-(5-fluoro-2-pyrimidinyl)-N-(5-(6-methoxy-2-pyridinyl)-4-phenyl-4H-1,2,4-triazol-3-yl)-2-propanesulfonamide] | 9.3 |
| CCO[C@H](c1ncc(F)cn1)[C@H](C)S(=O)(=O)Nc1nnc(-c2cccnc2)n1-c1c(OC)cccc1OC [Example 51.0, (1R,2S)-N-(4-(2,6-dimethoxyphenyl)-5-(3-pyridinyl)-4H-1,2,4-triazol-3-yl)-1-ethoxy-1-(5-fluoro-2-pyrimidinyl)-2-propanesulfonamide] | 0.71 |
| COc1cccc(-c2nnc(NS(=O)(=O)[C@@H](C)[C@H](OC)c3ncc(C)cn3)n2-c2ccc3ccccc3c2)n1 [Example 53.0, (1R,2S)-1-methoxy-N-(5-(6-methoxy-2-pyridinyl)-4-(2-naphthalenyl)-4H-1,2,4-triazol-3-yl)-1-(5-methyl-2-pyrimidinyl)-2-propanesulfonamide] | 53 |
| COC(=O)c1cccc(-n2c(NS(=O)(=O)[C@@H](C)[C@H](OC)c3ncc(C)cn3)nnc2-c2cccc(OC)n2)c1 [Example 54.0, methyl 3-(3-((((1S,2R)-2-methoxy-1-methyl-2-(5-methyl-2-pyrimidinyl)ethyl)sulfonyl)amino)-5-(6-methoxy-2-pyridinyl)-4H-1,2,4-triazol-4-yl)benzoate] | 12 |
| COc1cccc(-c2nnc(NS(=O)(=O)[C@@H](C)[C@H](OC)c3ncc(C)cn3)n2-c2cccc(C#N)c2)n1 [Example 56.0, (1R,2S)-N-(4-(3-cyanophenyl)-5-(6-methoxy-2-pyridinyl)-4H-1,2,4-triazol-3-yl)-1-methoxy-1-(5-methyl-2-pyrimidinyl)-2-propanesulfonamide] | 31 |
| COc1cnc([C@@H](OC)[C@H](C)S(=O)(=O)Nc2nnc(-c3cncc(C)c3)n2-c2c(OC)cccc2OC)nc1 [Example 57.0, (1R,2S)-N-(4-(2,6-dimethoxyphenyl)-5-(5-methyl-3-pyridinyl)-4H-1,2,4-triazol-3-yl)-1-methoxy-1-(5-methoxy-2-pyrimidinyl)-2-propanesulfonamide] | 0.55 |
| COc1cnc([C@@H](OC)[C@H](C)S(=O)(=O)Nc2nnc(-c3cccnc3)n2-c2c(OC)cccc2OC)nc1 [Example 58.0, (1R,2S)-N-(4-(2,6-dimethoxyphenyl)-5-(3-pyridinyl)-4H-1,2,4-triazol-3-yl)-1-methoxy-1-(5-methoxy-2-pyrimidinyl)-2-propanesulfonamide] | 0.5 |
| COc1cnc([C@@H](OC)[C@H](C)S(=O)(=O)Nc2nnc(-c3cncc(C)c3)n2-c2ccccc2)nc1 [Example 59.0, (1R,2S)-1-methoxy-1-(5-methoxy-2-pyrimidinyl)-N-(5-(5-methyl-3-pyridinyl)-4-phenyl-4H-1,2,4-triazol-3-yl)-2-propanesulfonamide] | 26 |
| COc1cccc(-c2nnc(NS(=O)(=O)[C@@H](C)[C@H](OC)c3ncc(C)cn3)n2-c2cccc(Br)c2)n1 [Example 60.0, (1R,2S)-N-(4-(3-bromophenyl)-5-(6-methoxy-2-pyridinyl)-4H-1,2,4-triazol-3-yl)-1-methoxy-1-(5-methyl-2-pyrimidinyl)-2-propanesulfonamide] | 12 |
| COc1cccc(-c2nnc(NS(=O)(=O)[C@@H](C)[C@H](OC)c3ncc(C)cn3)n2-c2cccc(C)c2)n1 [Example 62.0, (1R,2S)-1-methoxy-N-(5-(6-methoxy-2-pyridinyl)-4-(3-methylphenyl)-4H-1,2,4-triazol-3-yl)-1-(5-methyl-2-pyrimidinyl)-2-propanesulfonamide] | 6 |
| COc1cccc(-c2nnc(NS(=O)(=O)[C@@H](C)[C@H](OC)c3ncc(C)cn3)n2-c2ccc(F)c(C(F)(F)F)c2)n1 [Example 63.0, (1R,2S)-N-(4-(4-fluoro-3-(trifluoromethyl)phenyl)-5-(6-methoxy-2-pyridinyl)-4H-1,2,4-triazol-3-yl)-1-methoxy-1-(5-methyl-2-pyrimidinyl)-2-propanesulfonamide] | 350 |
| COc1cccc(-n2c(NS(=O)(=O)[C@@H](C)[C@H](OC)c3ncc(C)cn3)nnc2-c2cccc(OC)n2)c1 [Example 64.0, (1R,2S)-1-methoxy-N-(4-(3-methoxyphenyl)-5-(6-methoxy-2-pyridinyl)-4H-1,2,4-triazol-3-yl)-1-(5-methyl-2-pyrimidinyl)-2-propanesulfonamide] | 10 |
| COc1cccc(-c2nnc(NS(=O)(=O)[C@@H](C)[C@H](OC)c3ncc(C)cn3)n2-c2ccc(F)cc2)n1 [Example 65.0, (1R,2S)-N-(4-(4-fluorophenyl)-5-(6-methoxy-2-pyridinyl)-4H-1,2,4-triazol-3-yl)-1-methoxy-1-(5-methyl-2-pyrimidinyl)-2-propanesulfonamide] | 180 |
| COc1cccc(-c2nnc(NS(=O)(=O)[C@@H](C)[C@H](OC)c3ncc(C)cn3)n2-c2cccc(Cl)c2)n1 [Example 66.0, (1R,2S)-N-(4-(3-chlorophenyl)-5-(6-methoxy-2-pyridinyl)-4H-1,2,4-triazol-3-yl)-1-methoxy-1-(5-methyl-2-pyrimidinyl)-2-propanesulfonamide] | 24 |
| COc1cccc(-c2nnc(NS(=O)(=O)[C@@H](C)[C@H](OC)c3ncc(C)cn3)n2-c2cc(Cl)cc(Cl)c2)n1 [Example 68.0, (1R,2S)-N-(4-(3,5-dichlorophenyl)-5-(6-methoxy-2-pyridinyl)-4H-1,2,4-triazol-3-yl)-1-methoxy-1-(5-methyl-2-pyrimidinyl)-2-propanesulfonamide] | 60 |
| COc1cccc(-c2nnc(NS(=O)(=O)[C@@H](C)[C@H](OC)c3ncc(C)cn3)n2-c2ccc(F)c(F)c2)n1 [Example 71.0, (1R,2S)-N-(4-(3,4-difluorophenyl)-5-(6-methoxy-2-pyridinyl)-4H-1,2,4-triazol-3-yl)-1-methoxy-1-(5-methyl-2-pyrimidinyl)-2-propanesulfonamide] | 210 |
| COc1cccc(-c2nnc(NS(=O)(=O)[C@@H](C)[C@H](OC)c3ncc(C)cn3)n2-c2cccc(C(C)=O)c2)n1 [Example 72.0, (1R,2S)-N-(4-(3-acetylphenyl)-5-(6-methoxy-2-pyridinyl)-4H-1,2,4-triazol-3-yl)-1-methoxy-1-(5-methyl-2-pyrimidinyl)-2-propanesulfonamide] | 9.1 |
| COc1cccc(-c2nnc(NS(=O)(=O)[C@@H](C)[C@H](OC)c3ncc(C)cn3)n2-c2c(Cl)cccc2Cl)n1 [Example 73.0, (1R,2S)-N-(4-(2,6-dichlorophenyl)-5-(6-methoxy-2-pyridinyl)-4H-1,2,4-triazol-3-yl)-1-methoxy-1-(5-methyl-2-pyrimidinyl)-2-propanesulfonamide] | 0.76 |
| COc1cccc(-c2nnc(NS(=O)(=O)[C@@H](C)[C@H](OC)c3ncc(C)cn3)n2-c2cccc(C(F)(F)F)c2)n1 [Example 75.0, (1R,2S)-1-methoxy-N-(5-(6-methoxy-2-pyridinyl)-4-(3-(trifluoromethyl)phenyl)-4H-1,2,4-triazol-3-yl)-1-(5-methyl-2-pyrimidinyl)-2-propanesulfonamide] | 12 |
| COc1cccc(-c2nnc(NS(=O)(=O)[C@@H](C)[C@H](OC)c3ncc(C)cn3)n2-c2ccc(N(C)C)cc2)n1 [Example 77.0, (1R,2S)-N-(4-(4-(dimethylamino)phenyl)-5-(6-methoxy-2-pyridinyl)-4H-1,2,4-triazol-3-yl)-1-methoxy-1-(5-methyl-2-pyrimidinyl)-2-propanesulfonamide] | 7 |
| COc1cccc(-c2nnc(NS(=O)(=O)[C@@H](C)[C@H](C)c3ncc(F)cn3)n2-c2ccccc2)n1 [Example 78.0, (2S,3R)-3-(5-fluoro-2-pyrimidinyl)-N-(5-(6-methoxy-2-pyridinyl)-4-phenyl-4H-1,2,4-triazol-3-yl)-2-butanesulfonamide] | 9.4 |
| CCO[C@H](c1ncc(F)cn1)[C@H](C)S(=O)(=O)Nc1nnc(-c2cncc(C)c2)n1-c1c(OC)cccc1OC [Example 79.0, (1R,2S)-N-(4-(2,6-dimethoxyphenyl)-5-(5-methyl-3-pyridinyl)-4H-1,2,4-triazol-3-yl)-1-ethoxy-1-(5-fluoro-2-pyrimidinyl)-2-propanesulfonamide] | 0.41 |
| COc1cccc(OC)c1-n1c(NS(=O)(=O)[C@@H](C)[C@H](O)c2ncc(F)cn2)nnc1-c1cccnc1 [Example 82.0, (1R,2S)-N-(4-(2,6-dimethoxyphenyl)-5-(3-pyridinyl)-4H-1,2,4-triazol-3-yl)-1-(5-fluoro-2-pyrimidinyl)-1-hydroxy-2-propanesulfonamide] | 2.8 |
